Data on two compounds can be found in patent US20120053185A1, “METHOD TO TREAT MELANOMA IN BRAF INHIBITOR-RESISTANT SUBJECTS” (CollabRx Inc., priority 2010, published 2012).

One assay deals with patient's tumor. Kind of assay: Case report: patient who became resistant to successive therapies (Example 1). It counts as in vivo, human. The following applies: single patient. On the procedure:
A person had been on multiple lines of therapy, with a response to each, but then becoming resistant. The treatments were as follows:
In July, ipilimumab (a therapy directed at CTLA-4, an inhibitor of the immune system) was started. Sutent® was then administered in addition to the ipilimumab. […] As the patient, however, could not eat, they discontinued the Sutent® and died a few days after this discontinuation.

For another assay, the system named is metastatic melanoma. To be noted: patients with the mutation, cited from earlier work.
The mark [1] stands for this setting: Sutent given in addition to ipilimumab, within a few days.

Molecules are shown by their SMILES.

With `CCCS(=O)(=O)Nc1ccc(F)c(C(=O)c2c[nH]c3ncc(-c4ccc(Cl)cc4)cc23)c1F` [Plexxikon 4032], the “patient's tumor shrank” value with patient's tumor (first scan after treatment started January 2010) came to 75%. Moreover, the “result of second scan” value with patient's tumor (second scan April 2010) was “recurrence”. In the assay with metastatic melanoma (one study), the response rate is 70%. Also, the durability of responses entry with metastatic melanoma was “generally does not produce durable responses”.
Consider `CCN(CC)CCNC(=O)c1c(C)[nH]c(/C=C2\C(=O)Nc3ccc(F)cc32)c1C` [Sutent®, 5-(5-fluoro-2-oxo-1,2-dihydroindo1-3-ylidenemethyl)-2,4-dimethyl-1H-pyrrole-3-carboxylic acid (2-diethylaminoethyl)amide], for which, in the assay on patient's tumor (setting [1]), the abdomen size result is listed as “abdomen shrank to normal size” and the bowel movements entry was “normal bowel movements resumed”.
